Patent US20070207544A1, “STROMA-FREE, SERUM-FREE, AND CHEMICALLY DEFINED MEDIUM AND METHOD FOR EX VIVO MONONUCLEAR CELL EXPANSION USING THE SAME” (FOOD INDUSTRY RESEARCH & DEVELOPMENT INSTITUTE, priority 2005, published 2007)

Tests used:
[1] = test system: white blood cells (WBCs); test: Ex vivo expansion of UCB mononuclear cells: WBC growth (cell density); format: cell-based, human; details: for effect of serum substitute on WBC growth: sign of coefficient in Eq. (2), IMDM + seven cytokines; for effect of cytokine on WBC growth: sign of coefficient in Eq. (4), IMDM + BIT
Experimental: (§1) The term UCB was harvested with a standard 250-ml blood bag (Terumo, Shibuya-ku, Tokyo, Japan) with the informed consent and processed within 24 hrs. Buffy coat cells were obtained from UCB by centrifugation (700×g, 20 mins), and were diluted with an equal volume of wash buffer (Dulbecco's phosphate buffered saline, D-PBS, containing 2 mM EDTA, Sigma, St. Louis, Mo.). Then the cells were layered onto Ficoll-Paque solution (ρ=1.077 g/ml, Amersham Biosciences, Uppsala, Sweden) and centrifuged to deplete red blood cells, platelets and plasma (700×g, 40 mins). MNCs were collected, and washed with D-PBS twice. Recovery rate, viability, percentage of CD34^+ fraction, colony-forming cells (CFCs), and long-term culture-initiating cells (LTC-ICs) were determined as day 0 for control. For expansion, MNC were seeded at a concentration of 5×10^5 cells/ml in 24-well plates with variable serum substitutes and cytokines according to experiment design (all experiments were repeated at least six times).
(§2) Two-level factorial design followed the method of steepest ascent was carried out to find the optimal concentrations of serum substitutes and cytokines for CD34^+ cells expansion. Fractional and full factorial design data were regressed by SPSS software to obtain the first order polynomial. Its statistic significance was determined by an F-test and the significance of the regression coefficients was analyzed by a t-test. The polynomial takes the form of White blood cells (WBCs)/ml or CD34^+ cells/ml=α0+αixi (1)
(§3) As has been extensively reviewed [Sandstrom C E, et al. Biotechnol Bioeng. 1994; 43:706-733; Mobest D, et al. Biotechnol Bioeng. 1998; 60:341-347; Bruyn C D, et al. Cytotherapy. 2003; 5:153-160] and based on the inventors' previous experience [Lebkowski J S, et al. Stem Cells. 1995; 13:607-612; Audet J, et al. Biotechnol Bioeng. 2002; 80:393-404; Yao C L, et al. Enzyme Micro Technol. 2003; 33:343-352], four kinds of compounds that are frequently used as serum substitutes were selected—bovine serum albumin (BSA), insulin, transferring (TF), and 2-mercaptoethanol (2-ME). The 2^4 full factorial design was adopted to determine which serum substitutes were required for CD34^+ cell expansion in the MNC culture system. The 2^4 full factorial design could efficiently test four compounds with 16 trials and provide completely degrees of freedom to obtain the coefficients. […] 2003; 33:343-352]; the initial cell density was 5×10^5 MNCs/ml and the cells were analyzed after 7-day culture.
(§4) The 2^10-6 fractional factorial design (16 runs simultaneously) was adopted to identify which cytokines could help CD34^+ cell expansion in the MNC culture system. This design could efficiently test ten compounds with 16 trials and provide sufficient degrees of freedom to obtain the coefficients.

[2] = test system: CD34^+ cells; test: Ex vivo expansion of UCB mononuclear cells: CD34^+ cell growth by flow cytometry; format: cell-based, human; details: for effect of serum substitute on CD34^+ cell growth: sign of coefficient in Eq. (3), IMDM + seven cytokines
Experimental: as §1, §2, §3, §4

Row | Molecule | effect of serum substitute on WBC growth [1] | effect of serum substitute on CD34^+ cell growth [2] | effect of cytokine on WBC growth [1] | effect of cytokine on CD34^+ cell growth ([2]; sign of coefficient in Eq. (5), IMDM + BIT)
1 | OCCS [2-ME, 2-mercaptoethanol, reference compound] | inhibit | inhibit |  | 
2 | HGF: recombinant human hepatocyte growth factor; x10 in Eq. (4), (5) |  |  | inhibit | 
3 | IL-6: recombinant human interleukin-6; x5 in Eq. (4), (5) |  |  | inhibit | positive effect
4 | TF: transferrin, serum substitute; x3 in Eq. (2), (3) | enhance | enhance |  | 
5 | insulin: insulin, serum substitute; x2 in Eq. (2), (3) | enhance | enhance |  | 
